According to PubChem BioAssay (NCI):
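Where inhibition never reached the appropriate level, the endpoint shown equals the highest concentration tested. Otherwise, values were interpolated linearly from a five-concentration, 48-hour dose response in 96-well plates. The concentration for 50% growth inhibition is given as GI50. TGI: concentration producing complete growth inhibition.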

Key:
Test in all cases: DTP human tumour cell line panel, 48 h
SW-620 colon = tested on: SW-620 colon
HOP-92 NSCLC = tested on: HOP-92 NSCLC
NCI/ADR-RES ovarian = tested on: NCI/ADR-RES ovarian
T-47D breast = tested on: T-47D breast
SK-MEL-28 melanoma = tested on: SK-MEL-28 melanoma
BT-549 breast = tested on: BT-549 breast
IGROV1 ovarian = tested on: IGROV1 ovarian
SNB-75 CNS = tested on: SNB-75 CNS
HS 578T breast = tested on: HS 578T breast
786-0 renal = tested on: 786-0 renal
SF-295 CNS = tested on: SF-295 CNS
DU-145 prostate = tested on: DU-145 prostate
OVCAR-8 ovarian = tested on: OVCAR-8 ovarian
U251 CNS = tested on: U251 CNS
RXF 393 renal = tested on: RXF 393 renal
UACC-62 melanoma = tested on: UACC-62 melanoma
NCI-H226 lung = tested on: NCI-H226 lung
UACC-257 melanoma = tested on: UACC-257 melanoma
COLO 205 colon = tested on: COLO 205 colon
MDA-MB-231 breast = tested on: MDA-MB-231 breast
HCT-116 colon = tested on: HCT-116 colon
MCF7 breast = tested on: MCF7 breast
RPMI-8226 leukemia = tested on: RPMI-8226 leukemia
OVCAR-5 ovarian = tested on: OVCAR-5 ovarian
K-562 leukemia = tested on: K-562 leukemia
MDA-MB-435 = tested on: MDA-MB-435
SNB-19 CNS = tested on: SNB-19 CNS

In the case of `O=[N+]([O-])c1ccc(CI)cc1`, the GI50 (SW-620 colon) was 803 nM, the TGI (SW-620 colon) was 3.22 µM and the GI50 (HOP-92 NSCLC) was 4.25 µM. The TGI (HOP-92 NSCLC) was 16.5 µM, the GI50 (NCI/ADR-RES ovarian) was 3.15 µM and the TGI (NCI/ADR-RES ovarian) was 11.2 µM. For the same compound, the GI50 (T-47D breast) was 2210 nM, the TGI (T-47D breast) was 5.17 µM and the GI50 (SK-MEL-28 melanoma) was 5.15 µM. The TGI (SK-MEL-28 melanoma) was 18.2 µM, the GI50 (BT-549 breast) was 3.54 µM and the TGI (BT-549 breast) was 10.8 µM. For the same compound, the GI50 (IGROV1 ovarian) was 4.31 µM, the TGI (IGROV1 ovarian) was 14.8 µM and the GI50 (SNB-75 CNS) was 3.27 µM. It also gave a TGI (SNB-75 CNS) of 15.5 µM, a GI50 (HS 578T breast) of 3.53 µM and a TGI (HS 578T breast) of 24.2 µM. For the same compound, the GI50 (786-0 renal) was 4.71 µM, the TGI (786-0 renal) was 16.4 µM and the GI50 (SF-295 CNS) was 3.76 µM. For the same compound, the TGI (SF-295 CNS) was 13.7 µM, the GI50 (DU-145 prostate) was 2780 nM and the TGI (DU-145 prostate) was 7.08 µM. It also gave a GI50 (OVCAR-8 ovarian) of 3.71 µM, a TGI (OVCAR-8 ovarian) of 13.3 µM and a GI50 (U251 CNS) of 2910 nM. For the same compound, the TGI (U251 CNS) was 10.4 µM, the GI50 (RXF 393 renal) was 2440 nM and the TGI (RXF 393 renal) was 8.74 µM. It also gave a GI50 (UACC-62 melanoma) of 2940 nM, a TGI (UACC-62 melanoma) of 12.2 µM and a GI50 (NCI-H226 lung) of 5.66 µM. It also gave a TGI (NCI-H226 lung) of 23.5 µM, a GI50 (UACC-257 melanoma) of 3.47 µM and a TGI (UACC-257 melanoma) of 15.5 µM. The GI50 (COLO 205 colon) was 2000 nM, the TGI (COLO 205 colon) was 3.76 µM and the GI50 (MDA-MB-231 breast) was 1230 nM. The TGI (MDA-MB-231 breast) was 4.08 µM, the GI50 (HCT-116 colon) was 900 nM and the TGI (HCT-116 colon) was 2950 nM. For the same compound, the GI50 (MCF7 breast) was 3.08 µM, the TGI (MCF7 breast) was 17.2 µM and the GI50 (RPMI-8226 leukemia) was 2300 nM. The TGI (RPMI-8226 leukemia) was 5.68 µM, the GI50 (OVCAR-5 ovarian) was 6.2 µM and the TGI (OVCAR-5 ovarian) was 20.4 µM. For the same compound, the GI50 (K-562 leukemia) was 404 nM, the TGI (K-562 leukemia) was 2950 nM and the GI50 (MDA-MB-435) was 2890 nM. The TGI (MDA-MB-435) was 9.62 µM, the GI50 (SNB-19 CNS) was 3.03 µM and the TGI (SNB-19 CNS) was 14.4 µM.
